Assay results taken from patent US20140309295A1, “ANTIEPILEPTIC, HYPOCHOLESTEROLEMIC AND NEUROPROTECTIVE COMPOUND” (NEURON BIOPHARMA, S.A., priority 2009, published 2014).

Key:
Zucker rats = assay: Hypolipidemic effect in genetically obese Zucker rats, oral 7 days; assay type: in vivo; conditions: 30 mg/kg oral
Method: All the animals included for the experimental process were 11 week-old male Zucker rats. The experiments were conducted strictly following the Guidance on the Operation of Animals (Scientific Procedures, Act. 1986). The animals had their respective quarantine period and were treated with maximum precaution to minimize possible contaminations for inoculations and handling.
After a conditioning to the diet, 30 mg/kg of NST0021 or NST0037 were orally administered to the […] at the same time (15.00 to 18.00 h) for 7 consecutive days, using in both cases 0.5% carboxy methylcellulose in water as a vehicle. The control group received this same vehicle. Before starting the treatments and at 7 days therefrom, blood was extracted by lingual puncture under anesthesia after fasting for 16 hours. The plasma was obtained from said blood, in which the total cholesterol, HDL-c, LDL-c, VLDL-c, and triglyceride (TG) levels were evaluated by enzymatic and spectrophotometric techniques. In order to check if the effect at the lipid level involved an alteration of the oxidative stress, the redox state in the plasmas obtained was furthermore evaluated by means of the TEAC (Trolox Antioxidant Capacity Assay) technique. This technique determines the antioxidant capacity in vitro, giving an idea of the redox state of the sample analyzed by means of the absorbance capacity by electron transfer. The different components of the reaction, myoglobin, ABTS (2,2-azino-bis-(3-ethylbenzthiazoline-sulfonic acid) and hydrogen peroxide were added to the plasmas diluted 1/10 in PBS (10 μL) in a 96-well plate. After 3 minutes of incubation, the absorbance was measured at 405 nm (with a reference of 600 nm).

[1] = tested on: human neuroblastoma SK-N-MC cells; assay: Inhibition of camptothecin-induced apoptosis by flow cytometry (sub-G1); assay type: cell-based; conditions: 50 μM camptothecin
Method: The assay was performed on human neuroblastoma SK-N-MC cells in culture from the American Type Culture Collection (ATCC), in all cases strict rules of sterility were followed and the manipulation was performed in class II biological safety cabinets following European standard EN 12469. The cells were maintained in the following culture medium: Minimum Essential Medium Eagle (MEM) supplemented with 1 mM sodium pyruvate, 2 mM L-glutamine, 0.1 mM non-essential amino acids, 0.05 mg/ml gentamicin and 10% fetal bovine serum.
The inhibition caused by compound NST0037 against apoptosis (programmed cell death) caused by treatment with camptothecin which inhibits the enzyme Topoisomerase I, which prevents DNA duplication and triggers apoptotic cell death, was analyzed. These cells, not exceeding 15 passages, were seeded on 6-well plates treated for adherent cells with a cell concentration of 8×10^5 cells/well and 7×10^5 cells/well for the assay with pretreatment; 2 wells of the plate were seeded for each condition of the assay.
After 24 hours of cell incubation at 37° C. and 5% CO2, the cell treatments were performed with 2 ml of total volume for the following conditions: • Control: culture medium (medium) • Camptothecin: medium plus camptothecin 50 μM. • Camptothecin plus Z-VAD-fmk: medium plus 50 μM camptothecin plus 50 μM Z-VAD-fmk, as positive inhibition control. • Camptothecin plus NST0037: medium plus 50 μM camptothecin plus NST0037 at 10, 40 or 100 μM.
In the assay with pretreatment, the cells were previously treated with 40 μM of NST0037, 100 μM of mevalonate or both together for 24 hours and then they were treated with 50 μM camptothecin, the rest of the procedure was similar to the assay without pretreatment.
The cells were incubated (at 37° C. and 5% CO2) with these treatments for 6 hours, after which time they were collected along with their culture medium and centrifuged at 300×g for 5 minutes. The medium was removed, a washing was performed with PBS and the cells were fixed for 2 minutes with 500 μl of 70% ethanol at −20° C. Once fixed, they were centrifuged at 400×g for 5 minutes, washed with PBS and 0.05 mg/ml propidium iodide, diluted in cycling buffer (0.1% sodium citrate, 0.3% Nonidet P-40 and 0.02 mg/ml RNase) were added and they were incubated for 1 hour at 37° C. After this time they were analyzed by flow cytometry, comparing the fluorescence of propidium iodide against the amount of DNA. The percentage of apoptosis was measured on the sub-G1 region of each of the conditions.

[2] = tested on: Candida albicans CECT 1002; assay: Fungicidal activity bioassay (growth inhibition halos); assay type: cell-based; conditions: β-hydroxy acid form
Method: The fungicidal activity of NST0037 was analyzed by means of bioassay against Candida albicans. […] The assayed concentrations were the following: 2, 1.5, 1, 0.5, 0.25, 0.125, 0.06, 0.025 and 0.01 mM. Plates of MA medium (containing per liter: 20 g malt extract, 20 g glucose, 1 g mycopeptone and 10 g agar) previously inoculated with a culture of Candida albicans CECT (Spanish Type-Culture Collection) 1002 were prepared. With aid of a die (6 mm in diameter) various wells were prepared in which 40 μL of the previous solutions were deposited. The study was performed in triplicate and triplicates for each compound and concentration were included in each plate. The plates were kept at 4° C. for 1 hour and were subsequently incubated at 28° C. overnight. The presence of antifungal activity was determined by means of the formation of C. albicans growth inhibition halos.

CCC(CC)C(=O)O[C@H]1C[C@@H](C)C=C2C=C[C@H](C)[C@H](CC[C@@H]3C[C@@H](O)CC(=O)O3)[C@H]21 [NST0037, (1S,2S,6R,8S,8aR)-1,2,6,7,8,8a-hexahydro-3,7-dimethyl-8-[2-[(2R,4R)-tetrahydro-4-hydroxy-6-oxo-2H-pyran-2-yl]ethyl]-1-naphthalenyl-2-ethyl-butyrate] was tested, and the HDL (Zucker rats) was “increase of HDL”, the “oxidative stress (redox state in plasma, TEAC)” value (Zucker rats) was “drastic reduction” and the plasma triglyceride levels (Zucker rats) was “reduced the plasma triglyceride levels”. For the same molecule, the “plasma LDL levels” value (Zucker rats; male Zucker rats) was “equally reducing the plasma LDL levels”, the “maximum protection (inhibition of apoptosis caused by camptothecin)” value ([1]; 40 and 100 μM NST0037, 6 h, no pretreatment) was 18% and the “percentage of protection (inhibition of apoptosis) with pretreatment” value ([1]; 24 h pretreatment with 40 μM NST0037) was “up to 45%”. For the same molecule, the “inhibition halos at lower concentrations” value ([2]; 0.06 and 0.025 mM) was “the only one capable of causing inhibition halos” and the “antifungal activity (inhibition halos)” value ([2]; 2 to 0.01 mM) was “higher antifungal activity than the statins included in the assay”.
